19 compounds from US9926281B2 (priority 2014, dated 2018) can be followed below.

One may read the IC50 as the concentration that inhibits the measured activity by half.

In experiment [1] the target is human TACE (Homo sapiens (Human), UniProt P78536). Conditions: read-out: TACE potency IC50.
In experiment [2] the target is human ADAMTS-5 (Homo sapiens (Human), UniProt Q9UNA0). Conditions: read-out: hADAMTS-5 potency IC50.
Method: Finally, the fluorescence is read on the Envision (Perkin Elmer) after an incubation of 90 min at 37° C.
For experiment [3], the target named is human MMP13 (Homo sapiens (Human), UniProt P45452). The following applies: read-out: hMMP-13 potency IC50.
Method: Human MMP13 is preactivated by incubated the enzyme in the same buffer complemented with 1 mM freshly prepared p-Aminophenylmercuric acetate (AMPA) for 1 hour at 37° C.

Chain of human ADAMTS-5 (Q9UNA0 262-930): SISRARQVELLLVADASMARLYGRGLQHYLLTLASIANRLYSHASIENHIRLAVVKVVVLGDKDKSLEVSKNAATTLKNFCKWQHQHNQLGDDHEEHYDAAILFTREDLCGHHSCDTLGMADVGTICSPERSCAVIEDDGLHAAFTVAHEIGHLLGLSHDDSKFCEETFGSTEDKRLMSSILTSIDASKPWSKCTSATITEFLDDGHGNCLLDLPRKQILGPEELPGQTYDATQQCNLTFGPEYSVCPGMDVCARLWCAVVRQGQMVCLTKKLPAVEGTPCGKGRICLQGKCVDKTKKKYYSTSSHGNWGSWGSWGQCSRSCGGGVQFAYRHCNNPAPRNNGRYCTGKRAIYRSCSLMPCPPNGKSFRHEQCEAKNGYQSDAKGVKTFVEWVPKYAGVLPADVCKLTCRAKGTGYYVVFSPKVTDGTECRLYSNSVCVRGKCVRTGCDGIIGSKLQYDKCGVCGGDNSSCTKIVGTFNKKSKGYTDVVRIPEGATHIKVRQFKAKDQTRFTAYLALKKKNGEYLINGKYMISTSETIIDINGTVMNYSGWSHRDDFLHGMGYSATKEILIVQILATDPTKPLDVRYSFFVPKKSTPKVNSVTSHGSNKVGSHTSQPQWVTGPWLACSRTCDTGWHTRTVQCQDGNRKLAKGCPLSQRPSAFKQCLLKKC
Chain of human TACE (P78536 whole entry, looked up, change not shown): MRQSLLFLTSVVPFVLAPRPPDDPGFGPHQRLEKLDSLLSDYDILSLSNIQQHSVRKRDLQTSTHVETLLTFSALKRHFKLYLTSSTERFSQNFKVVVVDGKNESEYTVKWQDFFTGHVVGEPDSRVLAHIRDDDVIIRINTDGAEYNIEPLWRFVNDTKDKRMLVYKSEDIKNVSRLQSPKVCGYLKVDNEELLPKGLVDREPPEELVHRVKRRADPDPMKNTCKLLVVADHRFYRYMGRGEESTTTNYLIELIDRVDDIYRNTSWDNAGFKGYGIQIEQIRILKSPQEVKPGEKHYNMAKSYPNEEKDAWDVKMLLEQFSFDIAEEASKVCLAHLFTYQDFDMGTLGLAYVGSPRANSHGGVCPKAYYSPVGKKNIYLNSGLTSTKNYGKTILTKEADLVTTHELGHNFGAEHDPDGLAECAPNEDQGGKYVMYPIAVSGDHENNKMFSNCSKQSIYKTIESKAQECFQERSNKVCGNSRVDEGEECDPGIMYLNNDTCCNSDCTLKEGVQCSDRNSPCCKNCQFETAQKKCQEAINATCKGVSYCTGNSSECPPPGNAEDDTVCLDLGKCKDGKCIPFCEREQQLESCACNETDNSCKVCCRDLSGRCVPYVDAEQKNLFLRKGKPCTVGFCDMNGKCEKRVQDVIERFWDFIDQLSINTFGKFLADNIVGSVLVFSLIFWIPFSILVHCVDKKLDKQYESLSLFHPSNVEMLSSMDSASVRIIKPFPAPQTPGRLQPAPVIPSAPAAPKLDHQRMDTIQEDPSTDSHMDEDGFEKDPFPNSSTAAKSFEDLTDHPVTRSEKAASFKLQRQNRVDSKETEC

Regarding `COC(CC1(C)NC(=O)NC1=O)C(=O)N1CCN(c2cc(Cl)cc(Cl)c2)CC1` (centres unmarked) [compound 439, 5-(3-(4-(3,5-dichlorophenyl)piperazin-1-yl)-2-methoxy-3-oxopropyl)-5-methylimidazolidine-2,4-dione], the IC50 in experiment [1] was 787 nM; in experiment [2], 43 nM; in experiment [3], over 4000 nM.

As to `CC1(CC(COCc2ccccc2)C(=O)N2CCN(c3cc(Cl)cc(Cl)c3)CC2)NC(=O)NC1=O` (centres unmarked) [compound 424, 5-(2-(benzyloxymethyl)-3-(4-(3,5-dichlorophenyl)piperazin-1-yl)-3-oxopropyl)-5-methylimidazolidine-2,4-dione], the IC50 in experiment [1] is over 10800 nM; in experiment [2], 53 nM; in experiment [3], over 20000 nM.

Take `CC(CC1(COCc2ccccc2)NC(=O)NC1=O)C(=O)N1CCN(c2cc(Cl)cc(Cl)c2)CC1` (centres unmarked) [compound 415, 5-(benzyloxymethyl)-5-(3-(4-(3,5-dichlorophenyl)piperazin-1-yl)-2-methyl-3-oxopropyl)imidazolidine-2,4-dione]: the figures for the IC50 in experiment [1], in experiment [2] and in experiment [3] were 396 nM, 28 nM and 1300 nM, respectively.

Regarding `C[C@H]1CN(C(=O)CC[C@@]2(C3CC3)NC(=O)NC2=O)CCN1c1ccc(Cl)c(Cl)c1` [compound 416, 5-cyclopropyl-5-(3-((S)-4-(3,4-dichlorophenyl)-3-methylpiperazin-1-yl)-3-oxopropyl)imidazolidine-2,4-dione], the 50% inhibitory concentration (IC50) in experiment [1] is over 4000 nM; in experiment [2], 12 nM; in experiment [3], 2880 nM.

`CC(CC1(C)NC(=O)NC1=O)C(=O)N1CCN(c2cc(Cl)cc(Cl)c2)CC1` (centres unmarked) [compound 410, 5-(3-(4-(3,5-dichlorophenyl)piperazin-1-yl)-2-methyl-3-oxopropyl)-5-methylimidazolidine-2,4-dione]: the IC50 in experiment [1] is 170 nM; in experiment [2] it was 22 nM; in experiment [3], over 4000 nM.

For `C[C@H]1CN(C(=O)CCC2(C)NC(=O)NC2=O)CCN1c1ccc(F)c(F)c1` (stereo partly drawn) [compound 165, 5-[3-[(3S)-4-(3,4-difluorophenyl)-3-methyl-piperazin-1-yl]-3-oxo-propyl]-5-methyl-imidazolidine-2,4-dione], the results for the IC50 in experiment [1], in experiment [2] and in experiment [3] were over 20000 nM, 207 nM and over 20000 nM, respectively.

For the compound `O=C1NC(=O)C(CCC(=O)N2CCN(c3cccc(Cl)c3)CC2)(CN2CCOCC2)N1` (centres unmarked) [compound 155, 5-[3-[4-(3-chlorophenyl)piperazin-1-yl]-3-oxo-propyl]-5-(morpholinomethyl)imidazolidine-2,4-dione], the results for the IC50 in experiment [1], in experiment [2] and in experiment [3] were over 20000 nM, 1250 nM and over 20000 nM, respectively.

With `COCC1(CC(C)C(=O)N2CCN(c3cc(Cl)cc(Cl)c3)CC2)NC(=O)NC1=O` (centres unmarked) [compound 427, 5-(3-(4-(3,5-dichlorophenyl)piperazin-1-yl)-2-methyl-3-oxopropyl)-5-(methoxymethyl)imidazolidine-2,4-dione], the IC50 is 337 nM in experiment [1], 20 nM in experiment [2] and over 4000 nM in experiment [3].

Consider `COCC1(CC(C)C(=O)N2CCN(c3cc(F)cc(F)c3)[C@@H](C)C2)NC(=O)NC1=O` (stereo partly drawn) [compound 225, 5-[3-[(3S)-4-(3,5-difluorophenyl)-3-methyl-piperazin-1-yl]-2-methyl-3-oxo-propyl]-5-(methoxymethyl)imidazolidine-2,4-dione], for which the IC50 in experiment [1] is over 20000 nM; in experiment [2], 28 nM; in experiment [3], 3940 nM.

As to `COCC(CC1(C)NC(=O)NC1=O)C(=O)N1CCN(c2cc(Cl)cc(Cl)c2)CC1` (centres unmarked) [compound 436, 5-(3-(4-(3,5-dichlorophenyl)piperazin-1-yl)-2-(methoxymethyl)-3-oxopropyl)-5-methylimidazolidine-2,4-dione], the results for the IC50 in experiment [1], in experiment [2] and in experiment [3] were 368 nM, 22 nM and over 4000 nM, respectively.

In the case of `CC(CC1(C2CC2)NC(=O)NC1=O)C(=O)N1CCN(c2ccc(Cl)cc2)[C@@H](C)C1` (stereo partly drawn) [compound 412, 5-(3-((S)-4-(4-chlorophenyl)-3-methylpiperazin-1-yl)-2-methyl-3-oxopropyl)-5-cyclopropylimidazolidine-2,4-dione], the IC50 was over 20000 nM in experiment [1], 13 nM in experiment [2] and 433 nM in experiment [3].

Turning to `Cc1c(Cl)cc(Cl)cc1N1CCN(C(=O)C(C)CC2(C)NC(=O)NC2=O)C[C@@H]1C` (stereo partly drawn) [compound 423, 5-(3-((S)-4-(3,5-dichloro-2-methylphenyl)-3-methylpiperazin-1-yl)-2-methyl-3-oxopropyl)-5-methylimidazolidine-2,4-dione], the values for the IC50 in experiment [1], in experiment [2] and in experiment [3] were 1470 nM, 58 nM and over 20000 nM, respectively.

As to `CC(C)C(CC1(C)NC(=O)NC1=O)C(=O)N1CCN(c2cc(Cl)cc(Cl)c2)CC1` (centres unmarked) [compound 438, 5-(2-(4-(3,5-dichlorophenyl)piperazine-1-carbonyl)-3-methylbutyl)-5-methylimidazolidine-2,4-dione], the results for the IC50 in experiment [1], in experiment [2] and in experiment [3] were 1280 nM, 56 nM and 1850 nM, respectively.

Consider `C[C@H]1CN(C(=O)CCC2(C3CC3)NC(=O)NC2=O)CCN1c1ccc(Cl)c(Cl)c1` (stereo partly drawn) [compound 408, 5-cyclopropyl-5-(3-((S)-4-(3,4-dichlorophenyl)-3-methylpiperazin-1-yl)-3-oxopropyl)imidazolidine-2,4-dione], for which the figures for the IC50 in experiment [1], in experiment [2] and in experiment [3] were over 4000 nM, 19 nM and over 4000 nM, respectively.

As for `CCC(CC1(C)NC(=O)NC1=O)C(=O)N1CCN(c2cc(Cl)cc(Cl)c2)CC1` (centres unmarked) [compound 236, 5-[2-[4-(3,5-dichlorophenyl)piperazine-1-carbonyl]butyl]-5-methyl-imidazolidine-2,4-dione], the IC50 worked out at 225 nM in experiment [1], 15 nM in experiment [2] and 1220 nM in experiment [3].

As for `CC1(CC(CO)C(=O)N2CCN(c3cc(Cl)cc(Cl)c3)CC2)NC(=O)NC1=O` (centres unmarked) [compound 425, 5-(3-(4-(3,5-dichlorophenyl)piperazin-1-yl)-2-(hydroxymethyl)-3-oxopropyl)-5-methylimidazolidine-2,4-dione], the IC50 in experiment [1] is 245 nM; in experiment [2], 18 nM; in experiment [3] it was over 4000 nM.

With `CC(CC1(C2CC2)NC(=O)NC1=O)C(=O)N1CCN(c2cc(F)cc(Cl)c2)[C@@H](C)C1` (stereo partly drawn) [compound 413, 5-(3-((S)-4-(3-chloro-5-fluorophenyl)-3-methylpiperazin-1-yl)-2-methyl-3-oxopropyl)-5-cyclopropylimidazolidine-2,4-dione], the IC50 in experiment [1] was over 4000 nM; in experiment [2] it was 11 nM; in experiment [3] it was 952 nM.

In the case of `CCC(CC1(C)NC(=O)NC1=O)C(=O)N1CCN(c2cc(Cl)cc(Cl)c2)CC1` (centres unmarked) [compound 435, 5-(2-(4-(3,5-dichlorophenyl)piperazine-1-carbonyl)butyl)-5-methylimidazolidine-2,4-dione], the values for the half-maximal inhibitory concentration (IC50) in experiment [1], in experiment [2] and in experiment [3] were 225 nM, 15 nM and 1220 nM, respectively.

Turning to `CCC1(CCC(=O)N2CCN(c3cccc(Cl)c3)CC2)NC(=O)NC1=O` (centres unmarked) [compound 122, 5-[3-[4-(3-chlorophenyl)piperazin-1-yl]-3-oxo-propyl]-5-ethyl-imidazolidine-2,4-dione], the IC50 in experiment [1] was over 4000 nM; in experiment [3] it was over 20000 nM.
